Measured values taken from patent publication US11230542B2, “Inhibitors of integrated stress response pathway” (Praxis Biotech LLC, priority 2017, dated 2022).
Read-outs that look alike come from different tables or passages of the source.

Key:
CHO cells = assay: Protein translation assay (puromycin incorporation in CHO cells, unstressed or Tg-stressed); assay type: cell-based, Chinese hamster; conditions: Cricetulus griseus, media alone 100%
Procedure, shortened: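 CHO cells pretreated 2 h with 1 μM compound (unstressed), or 1 h with 100 nM or 1 μM then co-treated with 300 nM Tg. Pulse-labelled with 10 μg/ml puromycin for 30 min, then anti-puromycin western blot with densitometry. Unstressed values normalized to media alone (100%); stressed recovery scaled between media alone (100%) and Tg alone (0%).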

[1] = test system: Balb/c mice with immobilized hindlimb; assay: Immobilization-induced muscle atrophy; assay type: in vivo, mouse; conditions: 10 mg/kg oral, 3 days immobilization
Method: Wild type eight-weeks-old male Balb/c mice obtained from the vivarium Fundacion Ciencia & Vida Chile (Santiago, Chile) were used. Mice were housed in independent plastic cages, fed ad libitum in a room maintained at 25° C. with a 12-h:12-h light:dark cycle.
Twenty-four hours before and during the 3 days of immobilization procedures, animals received oral administration via feeding tubes (15 gauge) of vehicle (50% Polyethylene glycol 400 (Sigma-Aldrich P3265) in distilled water or 10 mg/kg of compound 3 formulated in vehicle.
One hindlimb was immobilized with a plastic stick placed over and under the limb and fixed with a medical adhesive bandage. Animals were daily monitored. The immobilization procedure prevented movement of the immobilized leg alone. After 3 days, the animals were sacrificed and gastrocnemius, quadriceps and tibialis anterior muscles were removed from both hindlimbs, the contralateral, non-immobilized leg being used as an internal control. […]
Upon collection, muscles were immediately frozen in liquid nitrogen and then stored at −80° C. […] Protein concentration in supernatants was determined using BCA Protein Assay Kit (Pierce). […]
Puromycin (12D10) (Merck Millipore) and β-actin (Sigma-Aldrich) antibodies were used as primary antibodies. […] Quantification of protein bands was done by densitometry using ImageJ software. […]

Q: How did the activity at 0.1 µM (CHO cells; CHO cells stressed with 300 nM Tg, Tg alone 0%, read-out: % Recovery of protein expression (100 nM test compound)) turn out when `O=C(COc1ccc(Cl)cc1)N[C@H]1CC[C@H](NC[C@@H](O)COc2ccc(Cl)cc2)CC1` (single isomer, unassigned) [Compound 3, (+)-2-(4-chlorophenoxy)-N-(4-((3-(4-chlorophenoxy)-2-hydroxypropyl)amino)cyclohexyl)acetamide] was run?
A: Its activity at 0.1 µM is 69.4%.

Q: What about the activity at 1 µM (CHO cells; CHO cells stressed with 300 nM Tg, Tg alone 0%, read-out: % Recovery of protein expression (1 μM test compound)) of the same molecule?
A: The activity at 1 µM was 155%.

Q: What about the activity at 1 µM (CHO cells; unstressed CHO cells, 2 h, read-out: % Protein expression relative to untreated (1 μM test compound)) of the same molecule?
A: The activity at 1 µM was 162%.

Q: And the “protein synthesis in immobilized hindlimb muscle” value ([1]; gastrocnemius)?
A: The value was “partial recovery of protein synthesis”.

Q: What about the “protein synthesis in immobilized hindlimb muscle” value ([1]; tibialis anterior and quadriceps) of the same molecule?
A: The value was “complete recovery of protein synthesis”.
